The values that follow come from patent publication US10285956B2, “N-(2-aminoethyl) ethanolamine (AEEA) and analogs to treat hypertrophic scarring and liposomal topical delivery” (BOARD OF REGENTS, THE UNIVERSITY OF TEXAS SYSTEM, priority 2016, dated 2019).

One data set deals with triple helical collagen. The data set can be described thus: Native (non-denaturing) gel of collagen tertiary structure (triple helix) in HS cells. As to conditions: for TGFβ1 effect: increase in triple helical collagen: TGFβ1 exposure last 4 days. The data set is classed as cell-based, human. The procedure: Native lysis buffer uses digitonin; see text. […] TGFβ1 treatment (4 days) increases mature (triple helical) structure, while changing monomer ratio, an effect that is mimicked by AEEA-alone at 25 μM but not at 50 μM (see text and FIG. 7 re: fibronectin). TGFβ1 effect appears attenuated by 50 μM AEEA.
PGK1/2 is fraction marker. […] These collagen aberrations were then examined with non-denaturing, or “native” gels (FIG. 5). “Native” or “non-denaturing” gel electrophoresis is run in non-denaturing conditions, i.e., in the absence of any charged denaturing agents, such as SDS; and reducing agent. Native gel allows for the protein's natural structure to be maintained. Thus, the physical size of the folded or assembled complex affects mobility. In SDS-PAGE, the electrophoretic mobility of proteins depends primarily on their molecular mass alone; in native gel the mobility also depends on both the protein's charge and its hydrodynamic size. The native lysis buffer used contains: 50 mM Tris-HCl, pH 7.5; 150 mM NaCl and 1% Digitonin.
However this finding is not present at 50 μM AEEA. Following 25 μM AEEA alone, a 6-fold increase was seen. The triple helical structure in the presence of both AEEA and TGFβ1 appeared relatively diminished.
Total collagen content of the matrix can be determined by established extraction procedures and a dye-binding method based on the specific binding of Sirius Red dye to the [Gly-X-Y]n helical structure of collagen types I to XIV. The method has virtually an exact correlation with analytic methods for hydroxyproline content. Elastin can be determined in separate samples as soluble tropoelastin utilizing a dye binding assay (Accurate Chemical Corp., Westbury, N.Y.) and as insoluble elastin by repeated salt and alkali extraction as previously described. The effects of AEEA on collagen and other extra-cellular protein abundances can be further evaluated by using the normal human neonatal primary dermal fibroblast (ATCC® PCS-201-010™), and normal skin fibroblasts (NS Fb), and also hypertrophic scar fibroblasts (HS Fb) derived from skin of the other clinically evident HS developed by patients. Time course and dose response studies can also be used to test the effects of AEEA on stability of those proteins, by Western blotting, to see if it is degraded more quickly in the AEEA treated cells. For Western Blot, cultured N Fb and FS Fb grown and treated with AEEA as described above can be gently washed with 4° C. pre-chilled PBS. The plate is then placed on the surface of a −20° C. ice block. […] The protein concentrations of the samples extracted with RIPA measured by with the DC™ protein assay kit (Bio-Rad Laboratories, Inc. USA), while the protein of remaining extracts is quantitated with the BCA protein assay (Pierce). […]

For another data set, the system named is fibronectin. The data set can be described thus: Fibronectin extractability, denaturing gel following digitonin, HS cells. The data set is classed as cell-based, human. The protocol: Increased extractability of fibronectin induced by TGFβ1, with little effect of AEEA at 25 or 50 μM. However, the TGFβ1 enhancement of fibronectin is blocked by 50 μM AEEA (last two lanes). Fibronectin, a critical cell adhesion molecule, is implicated in HS. […] See text for densitometric analysis, FIGS. 3-7.

In a further data set the test system is Integrins αV and β5. The data set can be described thus: Integrins αV and β5 extractability, denaturing gel, HS cells. In kind it is cell-based, human. The text has this:
(§1) In the native gel, intensities of integrin bands are not changed in a parallel fashion to that in denaturing gels, which may be the result of intramolecular alterations.
(§2) […] In FIG. 6, the effect of AEEA on fibronectin, integrins αV and β5, and N-cadherin is examined, which have all been implicated in the development of HS. In a denaturing gel, TGFβ1 and AEEA exposure has a similar effect of increasing extractability of integrins and, to some extent, N-cadherin. […] Most interesting are interactions between AEEA and TGFβ1 with regard to HS cell expression of fibronectin, a critical molecule in cell adhesion, growth, migration, and differentiation, which is implicated in HS.

A further data set relates to N-Cadherin. The data set can be described thus: Extractable N-Cadherin, denaturing gel, HS cells. In kind it is cell-based, human. The following applies: especially with both AEEA and TGFβ1.
From the text: as §1, §2

Another data set concerns collagen type 1. Nature of the data set: Collagen type 1 extractability, sequential denaturing ECM extraction (RIPA then urea), Western blot densitometry. In kind it is cell-based, human. The following applies: for increased extractability of collagen type 1 (by densitometry): 14 day exposure, HS fibroblasts, urea lysis buffer. The protocol:
Preparation of Decellularized Matrix Scaffold, or Extracellular Matrix (ECM): The methods for isolation and characterization of the matrix of skin cells (fibroblastic-type cells) derived from normal (N Fb) and those derived from hypertrophic scar (HS Fb), as well as an embryonic fibroblast (E Fb) as a further control for comparison by the present inventors; these basic methods can be followed in the characterization of mechanism(s) of HS. Briefly, fibroblast-like cells are cultured on 13 mm diameter Nunc™ Thermanox™ Coverslips (Catalog #174950) in 24-well cell culture plates in DMEM supplemented with 13% FCS, antibiotics, and 50 μg/ml of sodium ascorbate; cells are seeded at the number that cell density reaches 70% confluence in 24 hours. AEEA treatments start before the formation of ECM, at the second day post passage. Sodium ascorbate, which is the crucial cofactor of lysyl oxidase (LOX), lysyl hydroxylase, and proline hydroxylase (to be assayed), is added daily, 5 days/week, to stimulate ECM assembly. AEEA is changed with culture media (every 3 days). […] The next day, water is replaced with PBS, and the preparation is ready for AFM, or other biochemical, molecular or proteomic studies as described below. […]
Total collagen content of the matrix can be determined by established extraction procedures and a dye-binding method based on the specific binding of Sirius Red dye to the [Gly-X-Y]n helical structure of collagen types I to XIV. […] Elastin can be determined in separate samples as soluble tropoelastin utilizing a dye binding assay (Accurate Chemical Corp., Westbury, N.Y.) and as insoluble elastin by repeated salt and alkali extraction as previously described. The effects of AEEA on collagen and other extra-cellular protein abundances can be further evaluated by using the normal human neonatal primary dermal fibroblast (ATCC® PCS-201-010™), and normal skin fibroblasts (NS Fb), and also hypertrophic scar fibroblasts (HS Fb) derived from skin of the other clinically evident HS developed by patients. […]
A general note: Immunoblotting shows a protein as a band on a membrane.

The test system of the next data set is α-SMA. The data set can be described thus: α-SMA Western blot in normal (N) and HS skin fibroblasts. The data set is classed as cell-based, human.
The subject of a further data set is skin fibroblasts. The data set can be described thus: Scanning EM of interstitial matrix (skin fibroblasts removed). In kind it is cell-based, human. As to conditions: AEEA 5, 10 mM, cells removed.
Data set [1] is described as follows: Rat model of 30% scald burn, localized injections, adverse effect on skin or burn wound healing. In kind it is in vivo. The protocol: To assess the possibility of an adverse AEEA effect on skin or burn wound healing, a rat model of 30% scald burn was utilized. AEEA was used to treat burns (or unburned skin as sham) by localized multiple injections (5 of 0.1 ml) of AEEA at 5.0 and 50.0 mM concentrations, which are 100- or 1,000-fold of the effective concentration in our cell culture, respectively, but is only 10% concentration of the rat DAA experiments by gavage.

For data set [2] the following is noted: in utero exposure; cited from earlier work.

From the text for α-SMA: GAPDH is loading control. […] GAPDH is loading control. […] The effects of AEEA on collagen and other extra-cellular protein abundances can be further evaluated by using the normal human neonatal primary dermal fibroblast (ATCC® PCS-201-010™), and normal skin fibroblasts (NS Fb), and also hypertrophic scar fibroblasts (HS Fb) derived from skin of the other clinically evident HS developed by patients. Time course and dose response studies can also be used to test the effects of AEEA on stability of those proteins, by Western blotting, to see if it is degraded more quickly in the AEEA treated cells. For Western Blot, cultured N Fb and FS Fb grown and treated with AEEA as described above can be gently washed with 4° C. pre-chilled PBS. The plate is then placed on the surface of a −20° C. ice block. […] Therefore, samples are serially extracted with RIPA buffer, urea extraction buffer and then 0.5 M acetic acid; or, with native sample buffer, as described above. […] The protein concentrations of the samples extracted with RIPA measured by with the DC™ protein assay kit (Bio-Rad Laboratories, Inc. USA), while the protein of remaining extracts is quantitated with the BCA protein assay (Pierce). […] Signals are recorded on film (CL-XPousure™ film, Thermo Scientific) by using ECL™ Western blot detection reagents (Amersham Biosciences, RPN2209).

Consider “TGFβ1: transforming growth factor-β1, regulator of scarring used to treat HS cells [reference compound]”, for which the “TGFβ1 effect: increase in triple helical collagen” value in the data set on triple helical collagen (0.0 (control) AEEA, 7 days) came to 10 fold; in the data set with triple helical collagen (with 25 μM AEEA, 7 days) it was 16 fold. For the same compound, in the data set with fibronectin (TGFβ1 alone, denaturing gel, HS cells), the “increased extractability of fibronectin” value is 5 fold. For the same compound, the “effect on Integrins αV and β5 (extractability)” value in the data set with Integrins αV and β5 is on record as “increasing”. Further, the “Extractable N-Cadherin” value in the data set on N-Cadherin is listed as “increased”.

Regarding `NCCNCCO` [AEEA, N-(2-aminoethyl) ethanolamine], the entries for the “increased extractability of collagen type 1 (by densitometry)” value in the data set on collagen type 1 (25 μM AEEA) and with collagen type 1 (100 μM AEEA) were 2 fold and 5 fold, respectively. For the same compound, the “increase of Collagen I extractability, densitometrically” value with collagen type 1 (human burn wound fibroblasts (from HS) cultured in 50 μM compound) was 3 fold. The “increase in triple helical collagen” value with triple helical collagen (25 μM AEEA alone, 7 days, native gel) came to 6 fold. In the data set on triple helical collagen (50 μM AEEA plus TGFβ1, 7 days), the “TGFβ1 effect on triple helical collagen in presence of AEEA” value is “not present”. In addition, the α-SMA expression result was “loss of α-SMA” with α-SMA (1-10 mM AEEA, 14 days, normal (N) and HS skin fibroblasts); “not down-regulated” in the data set with α-SMA (low (μM) AEEA doses, 14 day exposure, HS fibroblasts). In the data set on fibronectin (50 μM AEEA plus TGFβ1, HS cells), the “TGFβ1 enhancement of fibronectin in presence of AEEA” value is “blocked”. Further, in the data set on fibronectin (AEEA at 25 or 50 μM alone, HS cells), the “effect on extractability of fibronectin” value is “little effect”. For the same compound, in the data set with Integrins αV and β5, the “effect on Integrins αV and β5 (extractability)” value is reported as “increasing”. The “Extractable N-Cadherin” value in the data set on N-Cadherin is recorded as “increased”. The “appearance of interstitial matrix by SEM” value in the data set with skin fibroblasts is “marked irregularities”. The “localized skin or systemic effects” value in data set [1] (5 injections of 0.1 ml at 5.0 and 50.0 mM, burns or unburned skin) is given as “no untoward localized skin or systemic effects”. Further, the “histology, AEEA sites vs vehicle (PBS buffer) sites” value in data set [1] (normal unburned skin or full thickness burns, 7 days post-burn) was “no qualitative or quantitative differences”. In [2], the “finding in rat pups born to mother rats exposed in utero” value is listed as “dramatic dissecting aortic aneurysms”.
